Assay results reported in patent US20230265296A1, “COATING COMPOSITION INCLUDING ALKYL OXIMES” (AdvanSix Resins & Chemicals LLC, priority 2015, published 2023).

Experiments:
Vapor pressure = assay type: physicochemical; conditions: at 20° C.
algae = experiment: Algae growth inhibition (EC50); assay type: cell-based
fish = experiment: Fish mortality (LC50); assay type: in vivo
[1] = Eye irritation categorisation; conditions: hazard code
[2] = Sensitization classification
[3] = Saturated vapor concentration; assay type: physicochemical

SMILES | vapor pressure (Vapor pressure) | effective concentration of 50% growth inhabitation (EC50) for algae (algae) | lethal concentration of 50% mortality (LC50) for fish (fish) | dermal irritation (Dermal irritation) | eye irritation category [1] | sensitizer classification [2] | saturated vapor concentration [3] | saturated vapor concentration relative to that of MEKO ([3]; 2-PO versus MEKO) | vapor pressure (Vapor pressure; listed as 2-pentanone oxime)
C/C(=N/O)C(C)C [3-methyl-2-butanone oxime] | less than 0.975 mm Hg |  |  |  |  |  |  |  | 
CCC/C(C)=N\O [2-PO, 2-pentanone oxime] | about 1.60 mm Hg | 88 ppm | greater than 100 ppm | no irritation | serious eye irritation (code H319) | not a sensistizer | 300 ppm | less than 25% | about 2.14 hPa
CCC(C)=NO [MEKO, methyl ethyl ketoxime, reference compound] | 2.00 mm Hg | 7 ppm | 48 ppm |  |  |  | 1350 ppm |  | 
CC(CC(C)C)=NO [MIBKO, methyl isobutyl ketoxime] | about 0.13 hPa |  |  |  |  |  |  |  | 
